Source: US7393865B2, “Sleep inducing compounds and methods relating thereto” (Neurocrine Biosciences, Inc., priority 2004, dated 2008)

Target: T1, human H1 receptor (Homo sapiens, UniProt P35367)
T1 construct: expressed in transfected cells; host or cells: CHO cells (crude membranes)
Assay: Human histamine H1 receptor binding assay
Conditions: competition with 1.5 nM [pyridinyl-5-3H] Pyrilamine, crude membranes of CHO cells transfected with human H1 receptor; Ki from IC50 by Cheng-Prusoff
Method: Compounds of the present invention may be evaluated for binding to the histamine H1 receptor by a standard binding assay. […] Pyrilamine (˜30 Ci/mmol, Amersham TRK608) in the presence of varying concentrations of competing ligand. Non-specific binding is determined in the presence of excess (1 μM) doxepin. Bound and free ligand are separated by rapid vacuum filtration using a Packard 96-well cell harvester onto UniFilter GF/C filter plates (PerkinElmer) that has been pretreated with 1% polyethyleneimine. The filter plates are then washed with 600 μl phosphate buffered saline containing 0.01% (v/v) Triton-X100. Bound radioligand is determined by scintillation counting using a TopCount-NXT (Packard). Binding data is analyzed by nonlinear, least-squares curve fitting algorithms using GraphPad Prism (GraphPad Software, Inc. San Diego, Calif.) or ActivityBase (IDBS, Guildford, Surrey, UK).

T1 sequence (P35367 whole entry): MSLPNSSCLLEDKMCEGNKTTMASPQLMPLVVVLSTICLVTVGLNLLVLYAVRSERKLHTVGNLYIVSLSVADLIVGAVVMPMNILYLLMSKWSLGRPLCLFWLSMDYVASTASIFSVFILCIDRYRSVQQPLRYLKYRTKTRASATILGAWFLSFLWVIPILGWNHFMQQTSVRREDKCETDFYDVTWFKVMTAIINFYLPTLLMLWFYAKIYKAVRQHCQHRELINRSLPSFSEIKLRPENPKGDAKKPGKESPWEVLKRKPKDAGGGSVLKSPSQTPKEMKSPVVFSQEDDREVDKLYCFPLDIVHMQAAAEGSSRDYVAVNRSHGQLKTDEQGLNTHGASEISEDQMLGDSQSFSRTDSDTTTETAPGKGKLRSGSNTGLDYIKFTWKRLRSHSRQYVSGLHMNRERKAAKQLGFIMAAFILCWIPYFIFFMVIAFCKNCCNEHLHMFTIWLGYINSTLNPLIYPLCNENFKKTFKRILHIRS

Ki	Compound
≤ 1000 nM	C[C@@H](c1ccccn1)c1c(CCN2CCC2)sc2ccccc12 [Compound 20-8, 2-{(R)-1-[2-(2-Azetidin-1-yl-ethyl)-benzo[b]thiophen-3-yl]-ethyl}-pyridine]
≤ 1000 nM	C[C@H](c1cccnc1F)c1c(CCN(C)C)sc2ccccc12 [Compound 15-8, Dimethyl-(2-{3-[(R)-1-(2-fluoro-pyridin-3-yl)-ethyl]-benzo[b]thiophen-2-yl}-ethyl)-amine]
≤ 1000 nM	CC(c1cccnc1Cl)c1c(CCN(C)C)sc2ccccc12 (stereo not shown) [Compound 25-4, (2-{3-[1-(2-Chloro-pyridin-3-yl)-ethyl]-benzo[b]thiophen-2-yl}-ethyl)-dimethyl-amine]
≤ 1000 nM	C[C@H](c1ncccc1F)c1c(CCN(C)C)sc2ccccc12 [Compound 18-5, (2-{3-[(S)-1-(3-Fluoro-pyridin-2-yl)-ethyl]-benzo[b]thiophen-2-yl}-ethyl)-dimethyl-amine]
≤ 1000 nM	C[C@H](c1ccccn1)c1c(CCN2CCCC2)sc2ccccc12 [Compound 20-2, 2-{(S)-1-[2-(2-Pyrrolidin-1-yl-ethyl)-benzo[b]thiophen-3-yl]-ethyl}-pyridine]
≤ 1000 nM	CN(C)CCc1sc2ccccc2c1C(C)(O)c1ccc(F)cc1 (stereo not shown) [Compound 3-3, 1-[2-(2-Dimethylamino-ethyl)-benzo[b]thiophen-3-yl]-1-(4-fluoro-phenyl)-ethanol]
≤ 1000 nM	CC(c1ccccn1)c1c(CCN2CCC(O)C2)sc2ccccc12 (stereo not shown) [Compound 20-6, 1-{2-[3-(1-Pyridin-2-yl-ethyl)-benzo[b]thiophen-2-yl]-ethyl}-pyrrolidin-3-ol]
≤ 1000 nM	CC(c1nccs1)c1c(CCN(C)C)sc2ccccc12 (stereo not shown) [Compound 8-3, Dimethyl-{2-[3-(1-thiazol-2-yl-ethyl)-benzo[b]thiophen-2-yl]-ethyl}-amine]
≤ 1000 nM	Cc1ccc(C(C)c2c(CCN(C)C)sc3ccccc23)cn1 (stereo not shown) [Compound 10-3, Dimethyl-(2-{3-[1-(6-methyl-pyridin-3-yl)-ethyl]-benzo[b]thiophen-2-yl}-ethyl)-amine]
≤ 1000 nM	CN(C)CCc1sc2ccccc2c1Cc1cncnc1 [Compound 13-4, Dimethyl-[2-(3-pyrimidin-5-ylmethyl-benzo[b]thiophen-2-yl)-ethyl]-amine]
≤ 1000 nM	CN(C)CCc1sc2ccccc2c1Cc1cnns1 [Compound 13-12, Dimethyl-[2-(3-[1,2,3]thiadiazol-5-ylmethyl-benzo[b]thiophen-2-yl)-ethyl]-amine]
≤ 1000 nM	CN(C)CCc1sc2ccccc2c1Cc1cncn1C [Compound 13-11, Dimethyl-{2-[3-(3-methyl-3H-imidazol-4-ylmethyl)-benzo[b]thiophen-2-yl]-ethyl}-amine]
≤ 1000 nM	CN(C)CCc1sc2ccccc2c1Cc1nn(C)cc1Cl [Compound 13-14, {2-[3-(4-Chloro-1-methyl-1H-pyrazol-3-ylmethyl)-benzo[b]thiophen-2-yl]-ethyl}-dimethyl-amine]
≤ 1000 nM	CN(C)CCc1sc2ccccc2c1Cc1cnccn1 [Compound 13-9, Dimethyl-[2-(3-pyrazin-2-ylmethyl-benzo[b]thiophen-2-yl)-ethyl]-amine]
≤ 1000 nM	C[C@@H](c1cncs1)c1c(CCN(C)C)sc2ccccc12 [Compound 17-3, Dimethyl-{2-[3-((R)-1-thiazol-5-yl-ethyl)-benzo[b]thiophen-2-yl]-ethyl}-amine]
≤ 1000 nM	CC(c1ccncc1)c1c(CCN(C)C)sc2ccccc12 (stereo not shown) [Compound 6-7, Dimethyl-{2-[3-(1-pyridin-4-yl-ethyl)-benzo[b]thiophen-2-yl]-ethyl}-amine]
≤ 1000 nM	CN(C)CCc1sc2ccccc2c1Cc1nccn1C [Compound 13-15, Dimethyl-{2-[3-(1-methyl-1H-imidazol-2-ylmethyl)-benzo[b]thiophen-2-yl]-ethyl}-amine]
≤ 1000 nM	Cc1cc(Cc2c(CCN(C)C)sc3ccccc23)n(C)n1 [Compound 13-13, {2-[3-(2,5-Dimethyl-2H-pyrazol-3-ylmethyl)-benzo[b]thiophen-2-yl]-ethyl}-dimethyl-amine]
≤ 1000 nM	CC(c1cscn1)c1c(CCN(C)C)sc2ccccc12 (stereo in doubt) [Compound 16-4, Dimethyl-{2-[3-((R)-1-thiazol-4-yl-ethyl)-benzo[b]thiophen-2-yl]-ethyl}-amine]
≤ 1000 nM	CN(C)CCc1sc2ccccc2c1Cc1cccnc1F [Compound 24-2, {2-[3-(2-Fluoro-pyridin-3-ylmethyl)-benzo[b]thiophen-2-yl]-ethyl}-dimethyl-amine]
≤ 1000 nM	CC(c1ccccn1)c1c(CCN2CCC2)sc2ccccc12 (stereo not shown) [Compound 20-7, 2-{1-[2-(2-Azetidin-1-yl-ethyl)-benzo[b]thiophen-3-yl]-ethyl}-pyridine]
≤ 1000 nM	COc1ncccc1[C@@H](C)c1c(CCN(C)C)sc2ccccc12 [Compound 15-5, Dimethyl-(2-{3-[(R)-1-(2-methoxy-pyridin-3-yl)-ethyl]-benzo[b]thiophen-2-yl}-ethyl)-amine]

Ki	Compound
≤ 1000 nM	C[C@H](c1ccccn1)c1c(CCN2CCC2)sc2ccccc12 [Compound 20-9, 2-{(S)-1-[2-(2-Azetidin-1-yl-ethyl)-benzo[b]thiophen-3-yl]-ethyl}-pyridine]
≤ 1000 nM	CC(c1ccc(F)cc1)c1c(CCN(C)C)sc2ccccc12 (stereo not shown) [Compound 3-4, (2-{3-[1-(4-Fluoro-phenyl)-ethyl]-benzo[b]thiophen-2-yl}-ethyl)-dimethyl-amine]
≤ 1000 nM	CC(c1cccc(F)n1)c1c(CCN(C)C)sc2ccccc12 (stereo not shown) [Compound 15-3]
≤ 1000 nM	C=C(c1cccnc1)c1c(CCN(C)C)sc2ccccc12 [Compound 6-4, Dimethyl-{2-[3-(1-pyridin-3-yl-vinyl)-benzo[b]thiophen-2-yl]-ethyl}-amine]
≤ 1000 nM	COc1cccnc1C(C)c1c(CCN(C)C)sc2ccccc12 (stereo not shown) [Compound 6-10, Dimethyl-(2-{3-[1-(3-methoxy-pyridin-2-yl)-ethyl]-benzo[b]thiophen-2-yl}-ethyl)-amine]
≤ 1000 nM	C=C(c1ccccn1)c1c(CCN(C)C)sc2ccccc12 [Compound 6-2, Dimethyl-{2-[3-(1-pyridin-2-yl-vinyl)-benzo[b]thiophen-2-yl]-ethyl}-amine]
≤ 1000 nM	CNCCc1sc2ccccc2c1[C@@H](C)c1ccccn1 [Compound 21-1, Methyl-{2-[3-((R)-1-pyridin-2-yl-ethyl)-benzo[b]thiophen-2-yl]-ethyl}-amine]
≤ 1000 nM	C[C@@H](c1ccccn1)c1c(CCN(C)C)sc2ccccc12 [Compound 12-2, Dimethyl-{2-[3-((R)-1-pyridin-2-yl-ethyl)-benzo[b]thiophen-2-yl]-ethyl}-amine]
≤ 1000 nM	C[C@H](c1ccccn1)c1c(CCN(C)C)sc2ccccc12 [Compound 12-1, Dimethyl-{2-[3-((S)-1-pyridin-2-yl-ethyl)-benzo[b]thiophen-2-yl]-ethyl}-amine]
≤ 1000 nM	CC(c1ccccn1)c1c(CCN(C)C)sc2ccccc12 (stereo not shown) [Compound 6-3, Dimethyl-{2-[3-(1-pyridin-2-yl-ethyl)-benzo[b]thiophen-2-yl]-ethyl}-amine]
≤ 1000 nM	CC(c1cscn1)c1c(CCN2CCCC2)sc2ccccc12 (stereo not shown) [Compound 19-4, 4-{1-[2-(2-Pyrrolidin-1-yl-ethyl)-benzo[b]thiophen-3-yl]-ethyl}-thiazole]
≤ 1000 nM	CC(c1ncccc1F)c1c(CCN(C)C)sc2ccccc12 (stereo not shown) [Compound 18-3, (2-{3-[1-(3-Fluoro-pyridin-2-yl)-ethyl]-benzo[b]thiophen-2-yl}-ethyl)-dimethyl-amine]
≤ 1000 nM	CC(c1cscn1)c1c(CCN(C)C)sc2ccccc12 (stereo not shown) [Compound 16-2, Dimethyl-{2-[3-(1-thiazol-4-yl-ethyl)-benzo[b]thiophen-2-yl]-ethyl}-amine]
≤ 1000 nM	C[C@@H](c1cscn1)c1c(CCN(C)C)sc2ccccc12 [Compound 16-3, Dimethyl-{2-[3-((R)-1-thiazol-4-yl-ethyl)-benzo[b]thiophen-2-yl]-ethyl}-amine]
≤ 1000 nM	CC(c1ccccn1)c1c(CCN2CCCC2)sc2ccccc12 (stereo not shown) [Compound 20-1, 2-{1-[2-(2-Pyrrolidin-1-yl-ethyl)-benzo[b]thiophen-3-yl]-ethyl}-pyridine]
≤ 1000 nM	C[C@@H](c1cscn1)c1c(CCN2CCCC2)sc2ccccc12 [Compound 19-5, 4-{(R)-1-[2-(2-Pyrrolidin-1-yl-ethyl)-benzo[b]thiophen-3-yl]-ethyl}-thiazole]
≤ 1000 nM	COc1cccnc1Cc1c(CCN(C)C)sc2ccccc12 [Compound 13-7, {2-[3-(3-Methoxy-pyridin-2-ylmethyl)-benzo[b]thiophen-2-yl]-ethyl}-dimethyl-amine]
≤ 1000 nM	CC(c1ccc(F)cn1)c1c(CCN(C)C)sc2ccccc12 (stereo not shown) [Compound 7-3, (2-{3-[1-(5-Fluoro-pyridin-2-yl)-ethyl]-benzo[b]thiophen-2-yl}-ethyl)-dimethyl-amine]
≤ 1000 nM	C[C@@H](c1cccnc1F)c1c(CCN(C)C)sc2ccccc12 [Compound 15-9, Dimethyl-(2-{3-[(S)-1-(2-fluoro-pyridin-3-yl)-ethyl]-benzo[b]thiophen-2-yl}-ethyl)-amine]
≤ 1000 nM	COc1cccc(C(C)c2c(CCN(C)C)sc3ccccc23)n1 (stereo not shown) [Compound 15-2, (2-{3-[1-(6-Methoxy-pyridin-2-yl)-ethyl]-benzo[b]thiophen-2-yl}-ethyl)-dimethyl-amine]
≤ 1000 nM	CNCCc1sc2ccccc2c1C(C)c1ccccn1 (stereo not shown) [Compound 9-1, Methyl-{2-[3-(1-pyridin-2-yl-ethyl)-benzo[b]thiophen-2-yl]-ethyl}-amine]
